{"source": "patent US20100129434A1", "about": "“COMPOSITIONS AND METHODS FOR THE TREATMENT OF MUCORMYCOSIS AND OTHER FUNGAL DISEASES” (priority 2006, published 2010)", "key": {"[1]": {"tested_on": "R. oryzae", "assay": "Survival of neutropenic mice infected with R. oryzae", "format": "in vivo", "procedure": "For in vivo infection, BALB/c male mice (>20 g) were rendered diabetic with a single i.p. injection of 210 mg/kg streptozotocin in 0.2 ml citrate buffer 10 days prior to fungal challenge. […] For neutropenic mouse model, mice were injected with a single i.p. dose of 200 mg/kg cyclolphosphamide (Bristol Myer Squibb) 2 days prior to infection with R. oryzae. […] Mice were infected through the tail vein with the appropriate inocula of R. oryzae. To confirm the inocula, dilutions were streaked on PDA plates containing 0.1% triton and colonies were counted following a 24 h incubation period at 37° C. The primary efficacy endpoint was time to death. As a secondary endpoint, brain fungal burden (the primary target organ) was determined by homogenization by rolling a pipette on organs placed in Whirl-Pak™ bags (Nasco®, Fort Atkinson, Wis.) containing 1 ml saline. The homogenate was serially diluted in 0.85% saline and then quantitatively cultured on PDA. Values were expressed as log10 cfu g−1 tissue. Finally, for histopathological analysis, infected organs were collected from mice and fixed in 10% zinc formalin. Fixed tissues were embedded in paraffin, and […] sections were stained with haematoxylin and eosin for light microscopy examination. All procedures involving mice were approved by the institutional animal use and care committee, following the National Institutes of Health guidelines for animal housing and care.\nTwo days later, mice were infected via the tail-vein with 2.7×10^3 spores of R. oryzae 99-892."}, "[2]": {"tested_on": "rhinocerebral mucormycosis", "assay": "Salvage therapy of a patient with rhinocerebral mucormycosis (case)", "format": "in vivo, human", "conditions": "one patient", "procedure": "A person with diabetic ketoacidosis presented to the emergency department of an outside hospital with polyuria, polydipsia, left retrobulbar pain, and a left cranial nerve (CN) VI palsy. […] The patient progressed to complete left opthalmoplegia in the first 24 hours. Rhinocerebral mucormycosis was suspected, and they were started on amphotericin B lipid complex (ABLC) at 5 mg/kg/day, along with empiric antibacterial agents, for treatment of sinusitis. On hospital day 2 they underwent endoscopic sphenooethmoid exploration. […] Bacterial culture grew only rare Enterobacter aerogenes.\nOver the next twelve days, the patient developed blindness and worsening proptosis in the left eye. He was continued on ABLC and no further surgery was performed.\nThe patient was transferred to our institution for further management on hospital day 14. Immediately upon arrival, he underwent left orbital exenteration with enucleation and extensive sinus debridement and resection. Intraoperative findings included an ischemic globe with extensive surrounding necrosis of the extraocular muscles.\nAntifungal therapy was continued. […] Given the location of the lesion at the superficial aspect of the pons, a dose of intracisternal amphotericin was administered, but the patient refused further doses. The patient remained clinically and neurologically unchanged. […]"}, "[3]": {"conditions": "iron overloaded patients, cited from earlier work"}, "[4]": {"tested_on": "rFTR1 promoter", "assay": "Green fluorescent protein (GFP) reporter assay, rFTR1 promoter", "format": "cell-based, Rhizopus oryzae", "conditions": "R. oryzae M16 transformed with rFTR1p::GFP", "text": "A 1.5 kb fragment upstream of the rFTR10RF was PCR amplified using the following primer pair: sense primer 5′-[…]-3′; and anti-sense primer 5′-[…]-3′. A 2.1 kb fragment containing the constitutively expressed actin promoter was also PCR amplified to use as a control using the following primer pair: sense 5′[…]-3′; and anti-sense:5′ […]-3. Amplified fragments were ligated into the XbaI and EagI sites of plasmid pyr225b (35). GFP was amplified from pGFPB21-43.31 (36), and cloned downstream of either promoter into EagI-SacI sites of the plasmid downstream of either promoter. Finally, a 2.1 kb fragment representing the ORF of pyrF and its native promoter was cloned into SpeI-ClaI sites of the plasmid to serve as a selection marker. […] Purified transformants selected on uracil negative plates were analyzed by Southern blotting.\nExpression of rFTR1p and ACT1p were studied in transformants grown in iron-replete medium (i.e. YNB+CSM-URA) or iron-depleted conditions (i.e. YNB+CSM-URA supplemented with 2 mM deferasirox). […] Additionally, a 1 ml sample from each culture was also used to quantify the fluorescence emission using a FACSCaliber™ (Becton Dickinson®) instrument equipped with an argon laser emitting at 488 nm. Spores were gated by forward and side scatter and fluorescence measured in FL1. […]"}}, "note": "Read-outs that look alike come from different tables or passages of the source."}
{"smiles": "O=C(O)c1ccc(-n2nc(-c3ccccc3O)nc2-c2ccccc2O)cc1", "note": "[Deferasirox, 4-[3,5-Bis(2-hydroxyphenyl)-1H-1,2,4-triazol-1-yl]-benzoic acid]", "values": [{"measurement": "time to death compared to placebo", "setting": "[1]; 2.7×10^3 spores R. oryzae 99-892, 10 mg/kg twice qod, five doses from 24 h post infection", "value": "significantly improved time to death"}, {"measurement": "time to death versus placebo", "setting": "[1]; R. oryzae 99-892, dosed twice daily", "value": "did not significantly improve time to death"}, {"measurement": "repeat MRI of the brain", "setting": "[2]; 1000 mg po daily seven days, LAmB continued, one week after treatment", "value": "resolution of the edema in the left cerebellar peduncle"}, {"measurement": "radiographic outcome", "setting": "[2]; after 7 days of treatment", "value": "substantial radiographic improvement"}, {"measurement": "tolerability", "setting": "[3]; chronic dosing over months to years, up to 30 mg/kg/d", "value": "very well tolerated"}, {"measurement": "tolerability", "setting": "[3]; up to 40 mg/kg/d for up to 12 days", "value": "very well tolerated"}, {"measurement": "GFP fluorescence by confocal microscopy", "setting": "[4]; 2 mM deferasirox", "value": "fluorescent"}, {"measurement": "fluorescent spores by flow cytometry", "setting": "[4]; 2 mM deferasirox overnight, iron-replete less than 1%", "value": 43, "unit": "%"}]}
